Converted amounts (≈) assume the structure as drawn. Read-outs that look alike come from different tables or passages of the source.

For assay [1], the system named is E. coli colonies that became resistant to CHL after CIP treatment. The format is cell-based.
The next assay concerns MG1655 ∆umuD. In words: Broth-based MIC, ∆umuD. The class given is cell-based, E. coli. The settings on record: Escherichia coli. How it is done: (§1) Minimum inhibitory concentration (MIC) values were determined in triplicate as described ([55]). […] All compounds were purchased from Sigma.
The next assay has as its system MG1655 ΔdinB ΔpolB ΔumuD. The assay is described as follows: Broth-based MIC, ΔdinB ΔpolB ΔumuD. The class given is cell-based, E. coli. The settings on record: Escherichia coli. How it is done:
as §1

The subject of a further assay is MG1655 ∆recA. In words: Broth-based MIC, ∆recA. The class given is cell-based, E. coli. Conditions: Escherichia coli. How it is done:
as §1

In another assay the test system is MG1655 lexA(S119A). The assay is described as follows: Broth-based MIC, lexA(S119A). The class given is cell-based, E. coli. The settings on record: Escherichia coli. The method, then: as §1
The test system of another assay is E. coli MLS83L. In words: Broth-based MIC, MLS83L. The settings on record: Escherichia coli. The class given is cell-based. The method, then:
as §1

In another assay the test system is MG1655 ∆polB. The assay is described as follows: Broth-based MIC, ∆polB. The settings on record: Escherichia coli. The format is cell-based, E. coli. How it is done: as §1
The next assay relates to MG1655 ∆dinB. In words: Broth-based MIC, ∆dinB. The class given is cell-based, E. coli. The settings on record: Escherichia coli. The method, then: as §1
A further assay concerns E. coli marR mutant. The assay is described as follows: CHL MIC of marR mutant. The format is cell-based. Conditions: partial deletion of marR in WT E. coli. How it is done: as §1
[2] abbreviates: colony 1, plates with 2× MIC after 24 h on LB without selection.
[3] abbreviates: colony 2, plates with 2× MIC after 24 h on LB without selection.
[4] abbreviates: colony 3, plates with 2× MIC after 24 h on LB without selection.
Where [5] appears, read: colony 4, plates with 2× MIC after 24 h on LB without selection.
[6] abbreviates: colony 5, plates with 2× MIC after 24 h on LB without selection.
Where [7] appears, read: colony 6, plates with 2× MIC after 24 h on LB without selection.
Where [8] appears, read: colony 7, plates with 2× MIC after 24 h on LB without selection.
Setting [9] is: colony 8, plates with 2× MIC after 24 h on LB without selection.
[10] abbreviates: colony 9, plates with 2× MIC after 24 h on LB without selection.
The mark [11] stands for this setting: colony 10, plates with 2× MIC after 24 h on LB without selection.
Where [12] appears, read: colony 11, plates with 2× MIC after 24 h on LB without selection.
The mark [13] stands for this setting: colony 12, plates with 2× MIC after 24 h on LB without selection.
[14] abbreviates: colony 13, plates with 2× MIC after 24 h on LB without selection.
[15] abbreviates: colony 14, plates with 2× MIC after 24 h on LB without selection.
Setting [16] is: colony 15, plates with 2× MIC after 24 h on LB without selection.
Setting [17] is: colony 16, plates with 2× MIC after 24 h on LB without selection.
The mark [18] stands for this setting: colony 17 (first line so numbered, r20), plates with 2× MIC after 24 h on LB without selection.
Setting [19] is: colony 17 (second line so numbered, r21), plates with 2× MIC after 24 h on LB without selection.
[20] abbreviates: colony 19, plates with 2× MIC after 24 h on LB without selection.
Setting [21] is: colony 20, plates with 2× MIC after 24 h on LB without selection.
[22] abbreviates: colony 21, plates with 2× MIC after 24 h on LB without selection.
[23] abbreviates: colony 22, plates with 2× MIC after 24 h on LB without selection.
Where [24] appears, read: colony 23, plates with 2× MIC after 24 h on LB without selection.
[25] abbreviates: colony 24, plates with 2× MIC after 24 h on LB without selection.
[26] abbreviates: colony 25, plates with 2× MIC after 24 h on LB without selection.
Where [27] appears, read: colony 26, plates with 2× MIC after 24 h on LB without selection.
The mark [28] stands for this setting: colony 27, plates with 2× MIC after 24 h on LB without selection.

As for `COc1cc(Cc2cnc(N)nc2N)cc(OC)c1OC` [TMP, trimethoprim], in [1], the Antibiotic resistance result is “No and Yes”.
Take `[H]/N=C(/N)N[C@H]1[C@H](O)[C@@H](O)[C@H](O[C@@H]2O[C@@H](C)[C@](O)(C=O)[C@H]2O[C@@H]2O[C@@H](CO)[C@H](O)[C@@H](O)[C@@H]2NC)[C@@H](N/C(N)=N\[H])[C@@H]1O` [STR, streptomycin]: the Antibiotic resistance entry in [1] (setting [2]) is “No”; in assay [1] (setting [3]), “No”; in assay [1] (setting [4]), “No”; in assay [1] (setting [5]), “Yes”; in assay [1] (setting [6]), “No”; in [1] (setting [7]) it was “No”. Also, the Antibiotic resistance entry in [1] (setting [8]), in [1] (setting [9]), in assay [1] (setting [10]), in [1] (setting [11]), in assay [1] (setting [12]) and in assay [1] (setting [13]) was “No” in each case. Further, the Antibiotic resistance result in [1] (setting [14]), in [1] (setting [15]), in assay [1] (setting [16]), in assay [1] (setting [17]), in assay [1] (setting [18]) and in assay [1] (setting [19]) was “No” throughout. In addition, the Antibiotic resistance entry in assay [1] (setting [20]), in assay [1] (setting [21]), in assay [1] (setting [22]), in assay [1] (setting [23]), in [1] (setting [24]) and in assay [1] (setting [25]) was “No” throughout. Moreover, the Antibiotic resistance entry in [1] (setting [26]), in assay [1] (setting [27]) and in assay [1] (setting [28]) was “No” throughout.
As to `CC1(C)S[C@@H]2[C@H](NC(=O)[C@H](N)c3ccccc3)C(=O)N2[C@H]1C(=O)O` [AMP, ampicillin], the Antibiotic resistance entry in assay [1] (setting [2]) is given as “No”; in assay [1] (setting [3]), “No”; in assay [1] (setting [4]), “No”; in assay [1] (setting [5]), “No”; in [1] (setting [6]) it was “No”; in assay [1] (setting [7]) it was “Yes”. In addition, the Antibiotic resistance result in assay [1] (setting [8]), in [1] (setting [9]), in assay [1] (setting [10]), in [1] (setting [11]), in [1] (setting [12]) and in [1] (setting [13]) was “No” each time. In addition, the Antibiotic resistance entry in assay [1] (setting [14]), in assay [1] (setting [15]), in assay [1] (setting [16]), in assay [1] (setting [17]), in assay [1] (setting [18]) and in assay [1] (setting [19]) was “No” in each case. The Antibiotic resistance result in assay [1] (setting [20]), in assay [1] (setting [21]), in assay [1] (setting [22]), in assay [1] (setting [23]), in assay [1] (setting [24]) and in assay [1] (setting [25]) was “No” throughout. In addition, the Antibiotic resistance result in assay [1] (setting [26]), in [1] (setting [27]) and in assay [1] (setting [28]) was “No” each time.
With `NC[C@H]1O[C@H](O[C@H]2[C@H](O)[C@@H](O[C@H]3O[C@H](CO)[C@@H](O)[C@H](N)[C@H]3O)[C@H](N)C[C@@H]2N)[C@H](O)[C@@H](O)[C@@H]1O` [KAN, kanamycin], the Antibiotic resistance result in assay [1] is listed as “No”.
`CN(C)[C@@H]1C(O)=C(C(N)=O)C(=O)[C@@]2(O)C(O)=C3C(=O)c4c(O)cccc4[C@@](C)(O)[C@H]3C[C@@H]12` [TET, tetracycline]: the Antibiotic resistance entry in assay [1] was “No and Yes”.
By MIC is commonly meant the least concentration at which growth counts as inhibited. Consider `O=C(O)c1cn(C2CC2)c2cc(N3CCNCC3)c(F)cc2c1=O` [CIP, ciprofloxacin], for which the MIC in the assay with MG1655 ∆umuD stood at 0.021 µg/mL (≈ 0.0634 µM); in the assay on MG1655 ΔdinB ΔpolB ΔumuD, 0.032 µg/mL (≈ 0.0966 µM); with MG1655 ∆recA, 0.006 µg/mL (≈ 0.0181 µM); against MG1655 lexA(S119A), 0.008 µg/mL (≈ 0.0241 µM); with E. coli MLS83L it was 0.256 µg/mL (≈ 0.773 µM); against MG1655 ∆polB it was 0.032 µg/mL (≈ 0.0966 µM). In addition, in the assay with MG1655 ∆dinB, the lowest concentration to inhibit growth (MIC) was 0.032 µg/mL (≈ 0.0966 µM).
As for `Oc1cc(Cl)ccc1Oc1ccc(Cl)cc1Cl` [TRI, triclosan], the Antibiotic resistance entry in [1] (setting [2]) is “No”; in [1] (setting [3]) it was “No”; in [1] (setting [4]), “Yes”; in assay [1] (setting [5]) it was “No”; in [1] (setting [6]) it was “No”; in assay [1] (setting [7]), “No”. Also, the Antibiotic resistance entry is recorded as “Yes” in [1] (setting [8]); “Yes” in assay [1] (setting [9]); “No” in assay [1] (setting [10]); “Yes” in assay [1] (setting [11]); “No” in [1] (setting [12]); “No” in assay [1] (setting [13]). The Antibiotic resistance entry in [1] (setting [14]), in [1] (setting [15]), in [1] (setting [16]), in [1] (setting [17]), in [1] (setting [18]) and in assay [1] (setting [19]) was “No” each time. Besides, the Antibiotic resistance entry in assay [1] (setting [20]), in assay [1] (setting [21]), in assay [1] (setting [22]), in assay [1] (setting [23]), in assay [1] (setting [24]) and in assay [1] (setting [25]) was “No” in each case. Also, the Antibiotic resistance entry in assay [1] (setting [26]), in assay [1] (setting [27]) and in assay [1] (setting [28]) was “No” in each case.
On to `CO[C@H]1/C=C/O[C@@]2(C)Oc3c(C)c(O)c4c(O)c(c(/C=N/N5CCN(C)CC5)c(O)c4c3C2=O)NC(=O)/C(C)=C\C=C\[C@H](C)[C@H](O)[C@@H](C)[C@@H](O)[C@@H](C)[C@H](OC(C)=O)[C@@H]1C` [RIF, rifampin], for which the Antibiotic resistance entry in assay [1] is on record as “No”.
Take `O=C(N[C@H](CO)[C@H](O)c1ccc([N+](=O)[O-])cc1)C(Cl)Cl` [CHL, chloramphenicol]: the “Increase in the MIC compared to the WT strain” value with E. coli marR mutant is reported as “eightfold”. Further, the Antibiotic resistance result in [1] (setting [2]) is reported as “No”; in [1] (setting [3]), “No”; in assay [1] (setting [4]) it was “Yes”; in assay [1] (setting [5]) it was “Yes”; in assay [1] (setting [6]) it was “Yes”; in assay [1] (setting [7]) it was “Yes”. The Antibiotic resistance result in assay [1] (setting [8]), in assay [1] (setting [9]), in [1] (setting [10]), in assay [1] (setting [11]), in [1] (setting [12]) and in assay [1] (setting [13]) was “Yes” throughout. Further, the Antibiotic resistance entry in assay [1] (setting [14]), in assay [1] (setting [15]), in assay [1] (setting [16]), in [1] (setting [17]), in assay [1] (setting [18]) and in assay [1] (setting [19]) was “Yes” each time. For the same compound, the Antibiotic resistance result in [1] (setting [20]), in assay [1] (setting [21]), in assay [1] (setting [22]), in assay [1] (setting [23]), in assay [1] (setting [24]) and in assay [1] (setting [25]) was “Yes” in each case. For the same compound, the Antibiotic resistance result in assay [1] (setting [26]), in assay [1] (setting [27]) and in assay [1] (setting [28]) was “Yes” each time. Moreover, in [1] (of 27 CHL-resistant colonies from CIP treatment, cultured without selection), the “Colonies that retained resistance” value was found to be 25.

The record behind these values is publication PMC11784200, “Insights into antibiotic resistance promoted by quinolone exposure” (Antimicrobial Agents and Chemotherapy, 2024).
